ChEMBL document CHEMBL4507268 (2021)

Key:
Details in all cases: Compound concentration 1.0 uM
[1] = target: Tyrosine-protein kinase SYK (Homo sapiens) (UniProt P43405)
[2] = target: Serine/threonine-protein kinase WNK2 (Homo sapiens) (UniProt Q9Y3S1)
[3] = target: G protein-coupled receptor kinase 5 (Homo sapiens) (UniProt P34947)
[4] = target: Myosin light chain kinase 2, skeletal/cardiac muscle (Homo sapiens) (UniProt Q9H1R3)
[5] = target: Macrophage colony-stimulating factor 1 receptor (Homo sapiens) (UniProt P07333)
Chain of Macrophage colony-stimulating factor 1 receptor (Homo sapiens) (P07333 whole entry): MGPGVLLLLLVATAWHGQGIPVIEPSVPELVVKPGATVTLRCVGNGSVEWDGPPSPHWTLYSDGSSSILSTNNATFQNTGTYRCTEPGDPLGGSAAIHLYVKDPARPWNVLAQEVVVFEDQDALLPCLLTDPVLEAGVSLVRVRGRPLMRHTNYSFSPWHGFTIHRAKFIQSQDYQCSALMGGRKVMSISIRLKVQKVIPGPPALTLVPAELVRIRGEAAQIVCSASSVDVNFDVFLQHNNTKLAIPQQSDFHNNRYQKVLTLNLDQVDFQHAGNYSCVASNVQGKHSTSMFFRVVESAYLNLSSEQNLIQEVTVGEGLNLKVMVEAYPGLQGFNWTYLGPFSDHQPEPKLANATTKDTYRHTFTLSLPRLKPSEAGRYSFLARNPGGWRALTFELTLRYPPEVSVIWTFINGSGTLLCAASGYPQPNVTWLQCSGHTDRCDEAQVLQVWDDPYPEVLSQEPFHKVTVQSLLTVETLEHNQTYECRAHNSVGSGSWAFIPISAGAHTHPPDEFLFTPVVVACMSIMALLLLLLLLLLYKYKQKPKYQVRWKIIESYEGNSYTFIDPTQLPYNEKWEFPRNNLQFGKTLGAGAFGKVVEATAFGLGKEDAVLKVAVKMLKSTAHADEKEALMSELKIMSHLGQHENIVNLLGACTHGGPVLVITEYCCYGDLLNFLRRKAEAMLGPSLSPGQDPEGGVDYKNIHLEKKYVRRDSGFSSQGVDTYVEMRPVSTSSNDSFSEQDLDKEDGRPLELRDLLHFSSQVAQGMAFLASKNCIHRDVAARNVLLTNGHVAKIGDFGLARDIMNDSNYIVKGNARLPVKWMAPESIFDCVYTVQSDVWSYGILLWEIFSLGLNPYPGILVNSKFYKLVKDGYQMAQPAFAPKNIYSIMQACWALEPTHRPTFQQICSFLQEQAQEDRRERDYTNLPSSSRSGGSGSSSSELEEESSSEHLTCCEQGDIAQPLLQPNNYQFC

[6] = target: T1, cGMP-dependent protein kinase 2 (Homo sapiens) (UniProt Q13237)
T1 sequence (whole entry): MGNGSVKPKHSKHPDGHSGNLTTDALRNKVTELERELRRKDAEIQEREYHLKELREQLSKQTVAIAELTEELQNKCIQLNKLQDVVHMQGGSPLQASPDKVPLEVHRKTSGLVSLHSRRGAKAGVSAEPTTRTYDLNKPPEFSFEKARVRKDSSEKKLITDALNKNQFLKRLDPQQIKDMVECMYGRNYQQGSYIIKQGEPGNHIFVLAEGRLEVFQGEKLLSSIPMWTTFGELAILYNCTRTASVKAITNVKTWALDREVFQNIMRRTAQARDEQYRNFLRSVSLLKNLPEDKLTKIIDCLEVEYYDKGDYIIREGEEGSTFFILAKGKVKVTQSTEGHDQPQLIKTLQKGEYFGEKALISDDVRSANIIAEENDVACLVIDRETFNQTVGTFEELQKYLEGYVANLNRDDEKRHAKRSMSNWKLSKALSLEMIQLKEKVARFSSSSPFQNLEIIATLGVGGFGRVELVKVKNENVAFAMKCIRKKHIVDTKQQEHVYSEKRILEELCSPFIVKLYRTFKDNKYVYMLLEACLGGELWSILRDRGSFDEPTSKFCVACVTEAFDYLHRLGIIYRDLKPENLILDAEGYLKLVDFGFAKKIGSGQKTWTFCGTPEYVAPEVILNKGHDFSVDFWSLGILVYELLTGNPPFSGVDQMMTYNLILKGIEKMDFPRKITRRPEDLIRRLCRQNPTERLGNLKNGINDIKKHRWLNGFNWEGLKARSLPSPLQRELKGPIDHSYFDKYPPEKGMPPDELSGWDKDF

[7] = target: T2, Ephrin type-A receptor 3 (Homo sapiens) (UniProt P29320)
T2 sequence (whole entry): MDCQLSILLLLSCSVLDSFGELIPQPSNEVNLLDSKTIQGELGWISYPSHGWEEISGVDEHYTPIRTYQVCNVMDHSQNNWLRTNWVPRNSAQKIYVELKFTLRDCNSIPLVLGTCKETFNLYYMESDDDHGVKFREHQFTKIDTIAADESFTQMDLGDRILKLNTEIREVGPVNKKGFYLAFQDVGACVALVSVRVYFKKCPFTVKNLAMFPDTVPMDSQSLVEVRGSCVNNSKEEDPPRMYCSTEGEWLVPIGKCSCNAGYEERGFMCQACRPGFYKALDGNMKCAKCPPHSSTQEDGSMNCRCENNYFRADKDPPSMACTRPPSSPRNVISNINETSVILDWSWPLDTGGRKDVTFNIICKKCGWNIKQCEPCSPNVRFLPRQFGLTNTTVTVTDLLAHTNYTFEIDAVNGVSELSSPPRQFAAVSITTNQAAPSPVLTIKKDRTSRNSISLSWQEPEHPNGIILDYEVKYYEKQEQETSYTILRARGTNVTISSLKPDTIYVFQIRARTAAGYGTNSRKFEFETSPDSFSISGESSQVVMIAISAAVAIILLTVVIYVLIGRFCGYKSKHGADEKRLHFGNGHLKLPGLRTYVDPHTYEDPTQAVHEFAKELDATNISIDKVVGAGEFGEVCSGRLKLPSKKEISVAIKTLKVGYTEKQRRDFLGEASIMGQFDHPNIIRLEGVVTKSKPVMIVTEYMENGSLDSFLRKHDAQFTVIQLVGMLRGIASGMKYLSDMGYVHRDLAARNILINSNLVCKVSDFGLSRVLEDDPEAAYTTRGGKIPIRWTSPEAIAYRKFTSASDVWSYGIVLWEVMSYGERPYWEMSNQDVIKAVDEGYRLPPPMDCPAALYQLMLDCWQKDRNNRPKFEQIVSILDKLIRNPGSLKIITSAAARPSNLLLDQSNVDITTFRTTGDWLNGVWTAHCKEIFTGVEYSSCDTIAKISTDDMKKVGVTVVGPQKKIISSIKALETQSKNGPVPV

[8] = target: Phosphatidylinositol 4-phosphate 5-kinase type-1 gamma (Homo sapiens) (UniProt O60331)
Chain of Phosphatidylinositol 4-phosphate 5-kinase type-1 gamma (Homo sapiens) (O60331 whole entry): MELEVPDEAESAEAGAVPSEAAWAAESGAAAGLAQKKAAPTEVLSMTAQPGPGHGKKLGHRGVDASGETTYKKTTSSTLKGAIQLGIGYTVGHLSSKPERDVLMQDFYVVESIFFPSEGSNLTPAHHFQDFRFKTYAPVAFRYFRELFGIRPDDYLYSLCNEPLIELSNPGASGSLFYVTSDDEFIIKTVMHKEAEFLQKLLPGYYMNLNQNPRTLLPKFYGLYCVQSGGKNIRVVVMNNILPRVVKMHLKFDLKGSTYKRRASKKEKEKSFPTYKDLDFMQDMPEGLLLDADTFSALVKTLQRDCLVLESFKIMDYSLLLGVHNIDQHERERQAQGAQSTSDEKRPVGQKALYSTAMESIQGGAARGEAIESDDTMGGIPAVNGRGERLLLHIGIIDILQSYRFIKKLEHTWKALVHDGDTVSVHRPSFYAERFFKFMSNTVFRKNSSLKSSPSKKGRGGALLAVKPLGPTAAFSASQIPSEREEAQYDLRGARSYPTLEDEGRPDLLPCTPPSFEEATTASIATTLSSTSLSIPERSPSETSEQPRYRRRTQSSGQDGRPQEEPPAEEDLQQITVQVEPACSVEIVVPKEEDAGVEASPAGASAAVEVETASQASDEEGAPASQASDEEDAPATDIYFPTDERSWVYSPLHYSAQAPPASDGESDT

[9] = target: T3, Serine/threonine-protein kinase BRSK1 (Homo sapiens) (UniProt Q8TDC3)
T3 sequence (whole entry): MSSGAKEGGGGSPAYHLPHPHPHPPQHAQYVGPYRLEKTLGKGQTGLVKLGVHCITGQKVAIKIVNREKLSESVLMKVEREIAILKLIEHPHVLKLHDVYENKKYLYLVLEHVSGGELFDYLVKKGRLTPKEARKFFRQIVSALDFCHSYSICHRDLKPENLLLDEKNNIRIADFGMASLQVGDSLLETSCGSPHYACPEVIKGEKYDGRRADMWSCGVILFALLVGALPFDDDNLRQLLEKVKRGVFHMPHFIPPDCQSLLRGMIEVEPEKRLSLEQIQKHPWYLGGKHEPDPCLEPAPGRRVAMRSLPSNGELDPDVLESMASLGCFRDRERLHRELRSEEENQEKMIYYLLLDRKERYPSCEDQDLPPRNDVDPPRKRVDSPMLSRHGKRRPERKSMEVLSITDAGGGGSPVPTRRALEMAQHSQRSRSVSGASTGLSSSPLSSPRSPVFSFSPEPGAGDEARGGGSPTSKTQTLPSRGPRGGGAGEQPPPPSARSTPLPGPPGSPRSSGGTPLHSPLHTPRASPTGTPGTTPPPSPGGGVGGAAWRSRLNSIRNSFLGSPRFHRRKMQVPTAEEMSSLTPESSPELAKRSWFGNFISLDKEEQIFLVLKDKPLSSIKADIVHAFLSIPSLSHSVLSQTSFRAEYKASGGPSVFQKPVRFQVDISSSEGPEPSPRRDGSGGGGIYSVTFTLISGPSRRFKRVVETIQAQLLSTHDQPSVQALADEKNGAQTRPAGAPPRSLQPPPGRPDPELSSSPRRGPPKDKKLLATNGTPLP

Measured: % residual kinase activity

Chain of Myosin light chain kinase 2, skeletal/cardiac muscle (Homo sapiens) (Q9H1R3 whole entry): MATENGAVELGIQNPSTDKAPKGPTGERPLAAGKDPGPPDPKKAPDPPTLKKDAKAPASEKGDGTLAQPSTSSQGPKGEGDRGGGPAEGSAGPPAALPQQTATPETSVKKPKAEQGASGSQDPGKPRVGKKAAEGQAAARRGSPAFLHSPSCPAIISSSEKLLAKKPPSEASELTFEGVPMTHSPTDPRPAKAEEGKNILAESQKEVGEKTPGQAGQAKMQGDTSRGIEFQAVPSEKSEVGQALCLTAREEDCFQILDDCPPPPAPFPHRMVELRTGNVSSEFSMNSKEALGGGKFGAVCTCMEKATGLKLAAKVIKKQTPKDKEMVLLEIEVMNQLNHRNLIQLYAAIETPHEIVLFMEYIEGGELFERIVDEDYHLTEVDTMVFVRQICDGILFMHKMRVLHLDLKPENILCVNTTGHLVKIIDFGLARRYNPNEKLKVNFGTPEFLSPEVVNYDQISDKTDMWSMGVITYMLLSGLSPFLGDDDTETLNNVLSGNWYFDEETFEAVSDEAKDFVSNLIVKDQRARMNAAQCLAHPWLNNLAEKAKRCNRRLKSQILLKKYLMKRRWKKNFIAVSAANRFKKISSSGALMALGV
Chain of Serine/threonine-protein kinase WNK2 (Homo sapiens) (Q9Y3S1 whole entry): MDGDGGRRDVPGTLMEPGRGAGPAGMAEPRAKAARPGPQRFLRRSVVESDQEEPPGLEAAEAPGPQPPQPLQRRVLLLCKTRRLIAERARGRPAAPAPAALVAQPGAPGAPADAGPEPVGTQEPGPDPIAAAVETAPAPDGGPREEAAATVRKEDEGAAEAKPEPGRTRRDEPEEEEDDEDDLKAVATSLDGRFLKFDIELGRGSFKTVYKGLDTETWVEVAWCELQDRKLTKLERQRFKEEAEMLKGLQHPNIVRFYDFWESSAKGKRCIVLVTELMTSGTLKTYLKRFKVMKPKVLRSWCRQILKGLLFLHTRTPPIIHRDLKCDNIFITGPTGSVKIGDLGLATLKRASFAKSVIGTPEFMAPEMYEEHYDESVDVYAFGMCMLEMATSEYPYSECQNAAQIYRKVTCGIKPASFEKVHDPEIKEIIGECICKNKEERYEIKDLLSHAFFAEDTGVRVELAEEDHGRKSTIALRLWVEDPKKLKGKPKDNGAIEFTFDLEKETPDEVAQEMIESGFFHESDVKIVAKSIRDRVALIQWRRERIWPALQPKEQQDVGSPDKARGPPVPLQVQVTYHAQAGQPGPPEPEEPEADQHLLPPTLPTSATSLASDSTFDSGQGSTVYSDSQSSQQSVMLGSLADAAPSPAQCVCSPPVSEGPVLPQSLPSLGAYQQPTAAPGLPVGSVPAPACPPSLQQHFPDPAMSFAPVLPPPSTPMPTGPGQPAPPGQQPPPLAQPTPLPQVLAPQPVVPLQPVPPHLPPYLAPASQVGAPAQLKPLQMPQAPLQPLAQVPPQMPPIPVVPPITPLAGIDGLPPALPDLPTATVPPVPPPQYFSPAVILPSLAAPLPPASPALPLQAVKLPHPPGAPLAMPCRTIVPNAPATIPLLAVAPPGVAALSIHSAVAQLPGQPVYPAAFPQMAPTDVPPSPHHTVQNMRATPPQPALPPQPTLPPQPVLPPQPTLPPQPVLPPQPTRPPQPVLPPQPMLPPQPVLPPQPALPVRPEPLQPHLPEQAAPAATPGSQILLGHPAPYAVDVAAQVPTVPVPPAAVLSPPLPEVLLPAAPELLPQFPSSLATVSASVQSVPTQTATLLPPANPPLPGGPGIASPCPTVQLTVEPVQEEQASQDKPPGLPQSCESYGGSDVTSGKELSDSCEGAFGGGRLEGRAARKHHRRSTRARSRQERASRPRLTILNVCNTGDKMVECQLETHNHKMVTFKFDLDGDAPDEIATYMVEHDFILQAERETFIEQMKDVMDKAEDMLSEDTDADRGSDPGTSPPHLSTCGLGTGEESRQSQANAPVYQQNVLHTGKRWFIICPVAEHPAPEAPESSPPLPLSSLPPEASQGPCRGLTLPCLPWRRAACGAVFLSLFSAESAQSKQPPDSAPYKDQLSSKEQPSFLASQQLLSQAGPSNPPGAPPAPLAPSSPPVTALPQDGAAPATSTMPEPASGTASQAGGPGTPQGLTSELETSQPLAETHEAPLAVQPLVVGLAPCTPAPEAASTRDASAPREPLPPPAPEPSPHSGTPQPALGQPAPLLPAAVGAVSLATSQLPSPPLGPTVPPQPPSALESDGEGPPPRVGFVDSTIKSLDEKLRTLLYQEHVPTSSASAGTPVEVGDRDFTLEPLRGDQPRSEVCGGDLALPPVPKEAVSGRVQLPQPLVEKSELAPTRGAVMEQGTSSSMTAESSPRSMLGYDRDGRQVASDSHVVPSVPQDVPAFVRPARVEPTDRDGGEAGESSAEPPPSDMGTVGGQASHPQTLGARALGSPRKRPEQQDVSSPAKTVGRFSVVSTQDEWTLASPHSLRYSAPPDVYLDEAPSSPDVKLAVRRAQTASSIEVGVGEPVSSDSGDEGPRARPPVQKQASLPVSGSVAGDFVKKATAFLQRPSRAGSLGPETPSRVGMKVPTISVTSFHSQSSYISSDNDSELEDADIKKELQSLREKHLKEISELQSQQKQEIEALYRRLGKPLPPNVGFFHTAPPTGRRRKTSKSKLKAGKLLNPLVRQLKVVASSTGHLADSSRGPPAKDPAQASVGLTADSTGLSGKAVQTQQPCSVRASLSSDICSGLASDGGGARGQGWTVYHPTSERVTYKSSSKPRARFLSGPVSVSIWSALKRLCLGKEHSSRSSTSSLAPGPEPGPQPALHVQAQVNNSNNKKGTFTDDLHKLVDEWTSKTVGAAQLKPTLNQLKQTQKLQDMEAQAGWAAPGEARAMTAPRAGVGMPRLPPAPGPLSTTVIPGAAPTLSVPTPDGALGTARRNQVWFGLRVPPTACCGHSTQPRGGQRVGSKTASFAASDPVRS
Chain of G protein-coupled receptor kinase 5 (Homo sapiens) (P34947 whole entry, looked up): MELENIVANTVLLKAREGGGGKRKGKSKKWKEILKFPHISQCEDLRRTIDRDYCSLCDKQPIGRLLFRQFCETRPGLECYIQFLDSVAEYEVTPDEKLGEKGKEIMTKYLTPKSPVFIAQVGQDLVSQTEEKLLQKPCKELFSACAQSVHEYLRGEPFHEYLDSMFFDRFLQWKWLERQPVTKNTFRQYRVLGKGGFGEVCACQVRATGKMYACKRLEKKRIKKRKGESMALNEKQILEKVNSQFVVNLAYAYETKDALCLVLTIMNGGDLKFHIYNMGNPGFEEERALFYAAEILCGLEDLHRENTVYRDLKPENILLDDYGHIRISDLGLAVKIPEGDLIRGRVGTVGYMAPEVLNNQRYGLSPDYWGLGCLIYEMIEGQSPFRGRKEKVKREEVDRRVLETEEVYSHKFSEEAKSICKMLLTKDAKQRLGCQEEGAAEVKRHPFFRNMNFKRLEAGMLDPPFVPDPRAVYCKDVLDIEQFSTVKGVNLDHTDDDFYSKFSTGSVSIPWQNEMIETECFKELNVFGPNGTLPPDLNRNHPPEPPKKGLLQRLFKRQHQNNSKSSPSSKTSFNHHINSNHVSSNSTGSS

CN1CCN(c2cnc3c(C4CCN(C(=O)c5ccc(OC(F)(F)F)cc5N)CC4)ncnc3c2)CC1 [BAY-885]
inactive: [1] 87% | [2] 107% | [3] 85% | [4] 93% | [5] 118% | [6] 127% | [7] 86% | [8] 93% | [9] 104%
